Assays:
Assay in all cases: KINOMEscan
Type in all cases: binding
Settings in all cases: read-out: percent of control
KIT = KIT (Homo sapiens (Human), UniProt P10721)
Procedure: (§1) In vitro profiling of Compound I-2 (1 μM) was performed using the DiscoveRx KINOMEscan® platform.

DRAK2 = DRAK2 (Homo sapiens (Human), UniProt O94768)
Procedure: as §1

GAK = GAK (Homo sapiens (Human), UniProt O14976)
Procedure: as §1

DMPK = DMPK (Homo sapiens (Human), UniProt Q09013)
Procedure: as §1

PCTK1 = PCTK1 (Homo sapiens (Human), UniProt Q00536)
Procedure: as §1

[1] = target: ABL1(Y253F)-phosphorylated (Homo sapiens (Human), UniProt P00519, Y253F)
Procedure: as §1

PFPK5(P.falciparum) = PFPK5(P.falciparum) (Plasmodium falciparum (isolate 3D7), UniProt P61075)
Procedure: as §1

AMPK-alpha2 = AMPK-alpha2 (Homo sapiens (Human), UniProt P54646)
Procedure: as §1

FLT3 (D835H) = FLT3 (D835H) (Homo sapiens (Human), UniProt P36888, D835H)
Procedure: as §1

INSRR = INSRR (Homo sapiens (Human), UniProt P14616)
Procedure: as §1

BUB1 = BUB1 (Homo sapiens (Human), UniProt O43683)
Procedure: as §1

PRKCI = PRKCI (Homo sapiens (Human), UniProt P41743)
Procedure: as §1

IKK-alpha = IKK-alpha (Homo sapiens (Human), UniProt O15111)
Procedure: as §1

EPHA2 = EPHA2 (Homo sapiens (Human), UniProt P29317)
Procedure: as §1

[2] = target: RSK3 (Kin.Dom.1-N-terminal) (Homo sapiens (Human), UniProt Q15349)
Procedure: as §1

PIK3CA(Q546K) = PIK3CA(Q546K) (Homo sapiens (Human), UniProt P42336, Q546K)
Sequence of PIK3CA(Q546K) (P42336 whole entry Q546K): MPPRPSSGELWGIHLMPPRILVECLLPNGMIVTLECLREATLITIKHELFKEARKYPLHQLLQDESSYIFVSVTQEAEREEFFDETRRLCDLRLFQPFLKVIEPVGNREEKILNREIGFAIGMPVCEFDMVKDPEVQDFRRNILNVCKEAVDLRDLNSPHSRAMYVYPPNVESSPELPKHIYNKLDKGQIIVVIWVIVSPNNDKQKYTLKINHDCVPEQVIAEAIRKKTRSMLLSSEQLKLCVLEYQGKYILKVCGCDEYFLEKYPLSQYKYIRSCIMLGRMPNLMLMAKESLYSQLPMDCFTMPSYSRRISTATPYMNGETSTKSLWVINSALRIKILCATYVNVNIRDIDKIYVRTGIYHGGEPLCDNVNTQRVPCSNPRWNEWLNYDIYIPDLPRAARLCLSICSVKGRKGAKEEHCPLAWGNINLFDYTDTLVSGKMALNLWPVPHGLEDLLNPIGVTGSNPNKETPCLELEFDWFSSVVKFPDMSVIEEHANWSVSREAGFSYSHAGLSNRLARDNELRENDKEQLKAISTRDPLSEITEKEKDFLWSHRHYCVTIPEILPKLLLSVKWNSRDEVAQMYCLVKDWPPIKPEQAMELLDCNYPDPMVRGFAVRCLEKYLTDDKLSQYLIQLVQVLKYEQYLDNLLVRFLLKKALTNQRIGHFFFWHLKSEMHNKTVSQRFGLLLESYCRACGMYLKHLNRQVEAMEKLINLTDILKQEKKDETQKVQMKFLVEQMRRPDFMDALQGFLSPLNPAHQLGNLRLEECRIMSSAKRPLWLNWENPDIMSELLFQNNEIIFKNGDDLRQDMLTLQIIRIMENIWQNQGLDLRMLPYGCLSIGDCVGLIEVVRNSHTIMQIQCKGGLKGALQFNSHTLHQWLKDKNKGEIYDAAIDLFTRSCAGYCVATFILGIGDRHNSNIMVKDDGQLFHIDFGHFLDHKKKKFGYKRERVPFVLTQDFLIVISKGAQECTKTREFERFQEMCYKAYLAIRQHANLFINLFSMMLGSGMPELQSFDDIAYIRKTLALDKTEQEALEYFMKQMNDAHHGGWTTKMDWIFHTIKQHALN
Procedure: as §1

PRKX = PRKX (Homo sapiens (Human), UniProt P51817)
Procedure: as §1

[3] = target: ABL1(F317I)-nonphosphorylated (Homo sapiens (Human), UniProt P00519, F317I)
Procedure: as §1

KIT(V559D,T670I) = KIT(V559D,T670I) (Homo sapiens (Human), UniProt P10721, T670I/V559D)
Procedure: as §1

MET = MET (Homo sapiens (Human), UniProt P08581)
Procedure: as §1

PIK3CA(E545A) = PIK3CA(E545A) (Homo sapiens (Human), UniProt P42336, E545A)
Sequence of PIK3CA(E545A) (P42336 whole entry E545A): as the sequence (P42336 whole entry Q546K) above, with E545A, K546Q counted along it
Procedure: as §1

CDKL5 = CDKL5 (Homo sapiens (Human), UniProt O76039)
Sequence of CDKL5 (O76039 whole entry): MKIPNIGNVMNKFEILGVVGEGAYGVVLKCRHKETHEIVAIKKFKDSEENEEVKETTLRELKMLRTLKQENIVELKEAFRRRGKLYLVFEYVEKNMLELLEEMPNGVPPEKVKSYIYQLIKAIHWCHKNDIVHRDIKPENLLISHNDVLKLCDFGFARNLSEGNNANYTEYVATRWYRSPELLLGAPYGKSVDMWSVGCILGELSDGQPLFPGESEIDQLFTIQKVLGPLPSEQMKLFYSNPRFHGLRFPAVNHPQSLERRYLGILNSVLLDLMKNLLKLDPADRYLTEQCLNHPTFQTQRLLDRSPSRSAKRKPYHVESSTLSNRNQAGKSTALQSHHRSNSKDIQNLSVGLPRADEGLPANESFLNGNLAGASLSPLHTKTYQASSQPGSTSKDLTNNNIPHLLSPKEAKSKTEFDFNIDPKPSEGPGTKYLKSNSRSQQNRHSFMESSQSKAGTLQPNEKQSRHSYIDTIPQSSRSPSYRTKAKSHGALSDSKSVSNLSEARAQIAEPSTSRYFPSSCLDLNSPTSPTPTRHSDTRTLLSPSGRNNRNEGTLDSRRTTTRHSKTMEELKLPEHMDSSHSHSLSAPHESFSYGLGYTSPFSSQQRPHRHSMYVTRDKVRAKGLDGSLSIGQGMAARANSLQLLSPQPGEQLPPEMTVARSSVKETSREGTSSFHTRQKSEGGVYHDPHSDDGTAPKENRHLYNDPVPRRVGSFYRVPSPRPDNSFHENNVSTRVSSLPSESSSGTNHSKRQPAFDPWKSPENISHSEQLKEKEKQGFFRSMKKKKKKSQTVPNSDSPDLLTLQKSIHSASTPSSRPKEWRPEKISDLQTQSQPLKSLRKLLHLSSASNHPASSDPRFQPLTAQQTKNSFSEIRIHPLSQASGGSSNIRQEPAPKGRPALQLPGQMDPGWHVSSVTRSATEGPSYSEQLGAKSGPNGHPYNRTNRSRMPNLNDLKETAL
Procedure: as §1

EPHA3 = EPHA3 (Homo sapiens (Human), UniProt P29320)
Procedure: as §1

CDK4 = CDK4 (Homo sapiens (Human), UniProt P11802)
Sequence of CDK4 (P11802 whole entry): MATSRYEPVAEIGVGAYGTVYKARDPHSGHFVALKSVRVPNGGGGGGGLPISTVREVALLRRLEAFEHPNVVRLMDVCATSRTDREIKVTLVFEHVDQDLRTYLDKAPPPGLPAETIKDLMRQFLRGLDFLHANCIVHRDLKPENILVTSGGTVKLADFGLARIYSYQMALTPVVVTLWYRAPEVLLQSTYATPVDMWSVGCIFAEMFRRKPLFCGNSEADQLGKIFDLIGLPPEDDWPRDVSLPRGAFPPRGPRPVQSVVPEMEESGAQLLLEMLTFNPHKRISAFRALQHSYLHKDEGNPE
Procedure: as §1

DRAK1 = DRAK1 (Homo sapiens (Human), UniProt Q9UEE5)
Procedure: as §1

MAPKAPK5 = MAPKAPK5 (Homo sapiens (Human), UniProt Q8IW41)
Procedure: as §1

TEC = TEC (Homo sapiens (Human), UniProt P42680)
Sequence of TEC (P42680 whole entry): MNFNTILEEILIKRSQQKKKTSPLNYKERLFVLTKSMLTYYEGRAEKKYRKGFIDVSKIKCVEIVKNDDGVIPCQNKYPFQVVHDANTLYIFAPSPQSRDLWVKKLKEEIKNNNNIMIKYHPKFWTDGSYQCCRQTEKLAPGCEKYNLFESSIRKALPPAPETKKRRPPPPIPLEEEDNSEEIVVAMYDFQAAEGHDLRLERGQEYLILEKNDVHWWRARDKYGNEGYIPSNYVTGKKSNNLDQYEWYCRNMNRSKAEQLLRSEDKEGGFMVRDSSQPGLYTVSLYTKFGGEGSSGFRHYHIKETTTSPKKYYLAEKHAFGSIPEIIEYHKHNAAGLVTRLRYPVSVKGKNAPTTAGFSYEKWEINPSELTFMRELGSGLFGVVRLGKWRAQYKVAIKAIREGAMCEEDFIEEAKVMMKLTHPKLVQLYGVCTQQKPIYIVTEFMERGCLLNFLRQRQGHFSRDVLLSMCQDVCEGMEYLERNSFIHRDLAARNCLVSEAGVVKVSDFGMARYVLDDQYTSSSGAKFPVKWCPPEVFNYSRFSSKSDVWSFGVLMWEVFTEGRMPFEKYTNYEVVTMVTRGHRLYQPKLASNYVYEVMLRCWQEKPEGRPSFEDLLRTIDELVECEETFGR
Procedure: as §1

PKMYT1 = PKMYT1 (Homo sapiens (Human), UniProt Q99640)
Procedure: as §1

TTK = TTK (Homo sapiens (Human), UniProt P33981)
Procedure: as §1

BTK = BTK (Homo sapiens (Human), UniProt Q06187)
Procedure: as §1

LTK = LTK (Homo sapiens (Human), UniProt P29376)
Sequence of LTK (P29376 17-864): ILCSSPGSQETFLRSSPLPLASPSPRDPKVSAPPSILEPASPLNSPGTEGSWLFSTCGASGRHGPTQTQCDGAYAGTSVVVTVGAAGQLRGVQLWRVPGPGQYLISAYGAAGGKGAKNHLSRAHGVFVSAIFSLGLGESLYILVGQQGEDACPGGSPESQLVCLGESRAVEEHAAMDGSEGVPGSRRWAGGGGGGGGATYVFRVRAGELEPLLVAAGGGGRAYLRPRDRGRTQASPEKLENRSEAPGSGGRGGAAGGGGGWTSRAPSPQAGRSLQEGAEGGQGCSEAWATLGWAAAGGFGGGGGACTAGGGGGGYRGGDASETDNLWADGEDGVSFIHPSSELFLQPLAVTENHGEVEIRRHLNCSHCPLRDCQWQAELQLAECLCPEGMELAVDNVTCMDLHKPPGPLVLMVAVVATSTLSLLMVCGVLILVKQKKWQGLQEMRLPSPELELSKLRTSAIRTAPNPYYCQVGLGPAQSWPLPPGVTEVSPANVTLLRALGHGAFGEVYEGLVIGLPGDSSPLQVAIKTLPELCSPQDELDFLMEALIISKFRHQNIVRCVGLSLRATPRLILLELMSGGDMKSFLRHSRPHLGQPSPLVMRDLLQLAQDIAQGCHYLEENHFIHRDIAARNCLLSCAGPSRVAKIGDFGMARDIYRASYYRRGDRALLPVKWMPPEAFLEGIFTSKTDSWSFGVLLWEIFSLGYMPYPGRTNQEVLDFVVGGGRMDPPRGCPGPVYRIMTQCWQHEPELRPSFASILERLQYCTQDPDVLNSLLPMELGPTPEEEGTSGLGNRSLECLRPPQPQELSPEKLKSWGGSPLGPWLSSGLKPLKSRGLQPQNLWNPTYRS
Procedure: as §1

EGFR(E746-A750del) = EGFR(E746-A750del) (Homo sapiens (Human), UniProt P00533, DEL746-750)
Procedure: as §1

CDK8 = CDK8 (Homo sapiens (Human), UniProt P49336)
Procedure: as §1

BRAF(V600E) = BRAF(V600E) (Homo sapiens (Human), UniProt P15056, V600E)
Sequence of BRAF(V600E) (P15056 whole entry V600E): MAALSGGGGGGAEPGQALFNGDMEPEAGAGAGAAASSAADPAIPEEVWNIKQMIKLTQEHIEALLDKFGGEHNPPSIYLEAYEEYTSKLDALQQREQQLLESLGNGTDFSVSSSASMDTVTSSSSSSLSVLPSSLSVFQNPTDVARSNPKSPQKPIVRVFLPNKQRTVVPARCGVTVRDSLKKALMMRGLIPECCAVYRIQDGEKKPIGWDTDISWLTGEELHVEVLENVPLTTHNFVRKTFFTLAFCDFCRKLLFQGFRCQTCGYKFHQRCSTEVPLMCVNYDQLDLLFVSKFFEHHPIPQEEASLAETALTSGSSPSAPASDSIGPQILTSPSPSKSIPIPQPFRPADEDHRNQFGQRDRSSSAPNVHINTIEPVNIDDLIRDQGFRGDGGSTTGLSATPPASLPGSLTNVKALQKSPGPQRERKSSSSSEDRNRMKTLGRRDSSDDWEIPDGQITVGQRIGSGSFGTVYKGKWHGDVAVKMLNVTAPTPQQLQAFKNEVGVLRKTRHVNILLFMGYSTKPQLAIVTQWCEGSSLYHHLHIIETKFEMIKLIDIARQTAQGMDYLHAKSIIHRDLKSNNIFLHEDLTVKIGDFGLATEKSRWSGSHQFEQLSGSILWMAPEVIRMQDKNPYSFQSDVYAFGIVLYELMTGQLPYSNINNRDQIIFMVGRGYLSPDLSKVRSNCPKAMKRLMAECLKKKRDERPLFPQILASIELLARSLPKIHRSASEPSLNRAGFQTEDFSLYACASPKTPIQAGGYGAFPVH
Procedure: as §1

EPHB 1 = EPHB 1 (Homo sapiens (Human), UniProt P54762)
Procedure: as §1

FLT1 = FLT1 (Homo sapiens (Human), UniProt P17948)
Procedure: as §1

FRK = FRK (Homo sapiens (Human), UniProt P42685)
Procedure: as §1

EPHA5 = EPHA5 (Homo sapiens (Human), UniProt P54756)
Procedure: as §1

Sequence of DRAK2 (O94768 whole entry): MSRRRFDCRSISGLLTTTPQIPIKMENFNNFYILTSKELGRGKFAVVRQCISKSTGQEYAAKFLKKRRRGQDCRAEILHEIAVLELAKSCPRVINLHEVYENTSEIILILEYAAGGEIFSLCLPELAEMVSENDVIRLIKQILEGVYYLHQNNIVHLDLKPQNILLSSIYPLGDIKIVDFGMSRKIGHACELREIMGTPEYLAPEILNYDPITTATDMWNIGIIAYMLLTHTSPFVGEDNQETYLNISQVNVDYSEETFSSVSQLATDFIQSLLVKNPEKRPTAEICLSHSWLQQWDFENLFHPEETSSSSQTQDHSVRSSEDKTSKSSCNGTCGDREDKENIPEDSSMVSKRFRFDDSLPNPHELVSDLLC

Compound `CCN1CCN(Cc2cc(NC(=O)c3ccc(C)c(-c4ccc5nc(NC(=O)C6CC6)cn5n4)c3)cc(C(F)(F)F)c2)CC1` [Compound I-2, 3-(2-(cyclopropanecarboxamido)imidazo[1,2-b]pyridazin-6-yl)-N-(3-((4-ethylpiperazin-1-yl)methyl)-5-(trifluoromethyl)phenyl)-4-methylbenzamide] has a remaining binding at 1 µM (KIT) of 0%, a remaining binding at 1 µM (DRAK2) of 89% and a remaining binding at 1 µM (GAK) of 99%. The remaining binding at 1 µM (DMPK) was 87%, the remaining binding at 1 µM (PCTK1) was 16% and the remaining binding at 1 µM [1] was 0%. The remaining binding at 1 µM (PFPK5(P.falciparum)) was 91%, the remaining binding at 1 µM (AMPK-alpha2) was 99% and the remaining binding at 1 µM (FLT3 (D835H)) was 2.2%. It also gave a remaining binding at 1 µM (INSRR) of 0.55%, a remaining binding at 1 µM (BUB1) of 100% and a remaining binding at 1 µM (PRKCI) of 66%. The remaining binding at 1 µM (IKK-alpha) was 53%, the remaining binding at 1 µM (EPHA2) was 1.8% and the remaining binding at 1 µM [2] was 100%. It also gave a remaining binding at 1 µM (PIK3CA(Q546K)) of 76%, a remaining binding at 1 µM (PRKX) of 100% and a remaining binding at 1 µM [3] of 0%. It also gave a remaining binding at 1 µM (KIT(V559D,T670I)) of 6.6%, a remaining binding at 1 µM (MET) of 9.7% and a remaining binding at 1 µM (PIK3CA(E545A)) of 91%. It also gave a remaining binding at 1 µM (CDKL5) of 95%, a remaining binding at 1 µM (EPHA3) of 41% and a remaining binding at 1 µM (CDK4) of 46%. The remaining binding at 1 µM (DRAK1) was 100%, the remaining binding at 1 µM (MAPKAPK5) was 72% and the remaining binding at 1 µM (TEC) was 100%. It also gave a remaining binding at 1 µM (PKMYT1) of 100%, a remaining binding at 1 µM (TTK) of 83% and a remaining binding at 1 µM (BTK) of 68%. For the same compound, the remaining binding at 1 µM (LTK) was 3.3%, the remaining binding at 1 µM (EGFR(E746-A750del)) was 29% and the remaining binding at 1 µM (CDK8) was 4.8%. The remaining binding at 1 µM (BRAF(V600E)) was 1.7%, the remaining binding at 1 µM (EPHB 1) was 0.65% and the remaining binding at 1 µM (FLT1) was 3.2%. The remaining binding at 1 µM (FRK) was 3.9% and the remaining binding at 1 µM (EPHA5) was 2.3%.
Compound `CCN1CCN(Cc2cc(NC(=O)c3ccc(C)c(-c4ccc5nc(NC(=O)C6CC6)cn5c4)c3)cc(C(F)(F)F)c2)CC1` [Compound I-6, 3-(2-(cyclopropanecarboxamido)imidazo[1,2-a]pyridin-6-yl)-N-(3-((4-ethylpiperazin-1-yl)methyl)-5-(trifluoromethyl)phenyl)-4-methylbenzamide] has a remaining binding at 1 µM (KIT) of 0%, a remaining binding at 1 µM (DRAK2) of 98% and a remaining binding at 1 µM (GAK) of 93%. The remaining binding at 1 µM (DMPK) was 100%, the remaining binding at 1 µM (PCTK1) was 28% and the remaining binding at 1 µM [1] was 0.1%. For the same compound, the remaining binding at 1 µM (PFPK5(P.falciparum)) was 77%, the remaining binding at 1 µM (AMPK-alpha2) was 99% and the remaining binding at 1 µM (FLT3 (D835H)) was 2%. It also gave a remaining binding at 1 µM (INSRR) of 3.8%, a remaining binding at 1 µM (BUB1) of 97% and a remaining binding at 1 µM (PRKCI) of 100%. It also gave a remaining binding at 1 µM (IKK-alpha) of 63%, a remaining binding at 1 µM (EPHA2) of 0.15% and a remaining binding at 1 µM [2] of 95%. It also gave a remaining binding at 1 µM (PIK3CA(Q546K)) of 94%, a remaining binding at 1 µM (PRKX) of 100% and a remaining binding at 1 µM [3] of 0%. It also gave a remaining binding at 1 µM (KIT(V559D,T670I)) of 5.5%, a remaining binding at 1 µM (MET) of 14% and a remaining binding at 1 µM (PIK3CA(E545A)) of 100%. For the same compound, the remaining binding at 1 µM (CDKL5) was 100%, the remaining binding at 1 µM (EPHA3) was 34% and the remaining binding at 1 µM (CDK4) was 36%. It also gave a remaining binding at 1 µM (DRAK1) of 94%, a remaining binding at 1 µM (MAPKAPK5) of 100% and a remaining binding at 1 µM (TEC) of 100%. For the same compound, the remaining binding at 1 µM (PKMYT1) was 100%, the remaining binding at 1 µM (TTK) was 83% and the remaining binding at 1 µM (BTK) was 87%. For the same compound, the remaining binding at 1 µM (LTK) was 2%, the remaining binding at 1 µM (EGFR(E746-A750del)) was 25% and the remaining binding at 1 µM (CDK8) was 3%. For the same compound, the remaining binding at 1 µM (BRAF(V600E)) was 5.9%, the remaining binding at 1 µM (EPHB 1) was 0.25% and the remaining binding at 1 µM (FLT1) was 3.2%. It also gave a remaining binding at 1 µM (FRK) of 3.2% and a remaining binding at 1 µM (EPHA5) of 2.5%.

— patent publication US20230391768A2, “IMIDAZOPYRIDINE DERIVATIVES AND AZA-IMIDAZOPYRIDINE DERIVATIVES AS JANUS KINASE 2 INHIBITORS AND USES THEREOF” (Dana-Farber Cancer Institute, Inc., priority 2018, published 2023)
